Experimental data as given in US20260325533A1, “CDK INHIBITOR COMPOUNDS” (ALEKSIA THERAPEUTICS, INC., priority 2023, published 2026).
Like-named read-outs stand apart in the source and are kept apart here. Blank lines part the entries; values can stand above or below the compound they belong to.

Experiments:
Format in all cases: biochemical
CDK2/CCNE1 = CDK2/CCNE1 (Homo sapiens, UniProt P24941); assay: CDK2 homogeneous time-resolved fluorescence (HTRF) kinase assay
Outline: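 IC50 derived from 11-point, half-log dilutions (usually top 10 μM) of compound, 1% DMSO. Kinase (3 nM CDK2/CCNE1) was preincubated with compound 20 min, then phosphorylated 50 nM ULight-4E-BP1 peptide at 1 mM ATP for 60 min, 23 °C. Europium-antibody TR-FRET read after EDTA stop.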

CDK1/CCNB1 = CDK1/CCNB1 (Homo sapiens, UniProt P06493); assay: CDK1 homogeneous time-resolved fluorescence (HTRF) kinase assay
Sequence of CDK1/CCNB1 (P06493 whole entry): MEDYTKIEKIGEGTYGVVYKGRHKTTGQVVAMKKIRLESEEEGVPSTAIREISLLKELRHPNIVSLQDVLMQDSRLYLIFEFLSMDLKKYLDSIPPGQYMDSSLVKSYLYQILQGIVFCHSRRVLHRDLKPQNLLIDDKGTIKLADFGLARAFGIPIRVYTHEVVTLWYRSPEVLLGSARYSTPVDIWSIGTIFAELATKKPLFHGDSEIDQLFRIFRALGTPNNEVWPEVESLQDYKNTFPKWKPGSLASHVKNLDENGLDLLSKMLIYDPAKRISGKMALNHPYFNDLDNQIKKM
Sequence of CDK1/CCNB1 (P14635 whole entry partner): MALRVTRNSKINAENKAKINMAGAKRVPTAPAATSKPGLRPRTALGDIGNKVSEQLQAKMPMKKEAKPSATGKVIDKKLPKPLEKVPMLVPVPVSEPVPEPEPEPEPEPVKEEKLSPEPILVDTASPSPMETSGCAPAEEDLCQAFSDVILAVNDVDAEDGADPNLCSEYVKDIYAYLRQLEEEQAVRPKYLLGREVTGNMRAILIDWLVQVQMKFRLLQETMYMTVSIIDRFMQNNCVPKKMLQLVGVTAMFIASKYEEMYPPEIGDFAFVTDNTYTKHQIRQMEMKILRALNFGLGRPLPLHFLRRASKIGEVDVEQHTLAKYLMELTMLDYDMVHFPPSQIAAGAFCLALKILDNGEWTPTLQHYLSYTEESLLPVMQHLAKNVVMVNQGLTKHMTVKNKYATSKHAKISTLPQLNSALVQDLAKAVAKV
Outline: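 Kinase activity is measured as Lance signal (665 nm, or 665/615 nm ratio) from europium-labelled anti-phospho-Thr37/46 antibody binding ULight-4E-BP1 peptide. Reactions contain 0.5 nM enzyme, 1 mM ATP, 1% DMSO and run 60 min at 23 °C before EDTA quench.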

CDK4/CCND3 = CDK4/CCND3 (Homo sapiens, UniProt P11802); assay: CDK4 homogeneous time-resolved fluorescence (HTRF) kinase assay
Sequence of CDK4/CCND3 (P11802 whole entry): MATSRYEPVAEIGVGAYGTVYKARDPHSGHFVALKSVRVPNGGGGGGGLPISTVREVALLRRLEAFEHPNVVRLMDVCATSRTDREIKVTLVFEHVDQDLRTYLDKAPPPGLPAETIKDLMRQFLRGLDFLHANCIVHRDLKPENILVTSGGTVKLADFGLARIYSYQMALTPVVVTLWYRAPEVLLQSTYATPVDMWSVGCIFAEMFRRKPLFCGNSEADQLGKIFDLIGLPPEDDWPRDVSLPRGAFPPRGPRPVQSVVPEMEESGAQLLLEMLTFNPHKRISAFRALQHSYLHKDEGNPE
Sequence of CDK4/CCND3 (P30281 whole entry partner): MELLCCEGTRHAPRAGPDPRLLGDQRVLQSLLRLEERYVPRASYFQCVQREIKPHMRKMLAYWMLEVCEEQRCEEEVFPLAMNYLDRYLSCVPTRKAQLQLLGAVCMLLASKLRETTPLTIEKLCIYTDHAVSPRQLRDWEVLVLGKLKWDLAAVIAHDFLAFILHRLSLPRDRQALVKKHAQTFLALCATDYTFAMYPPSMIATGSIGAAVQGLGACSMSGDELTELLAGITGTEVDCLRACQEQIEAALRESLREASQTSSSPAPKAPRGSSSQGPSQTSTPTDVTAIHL
Outline: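 HTRF kinase assay, CDK4/CCND3 1.5 nM, ATP 1 mM, ULight-4E-BP1 peptide 50 nM, 23 °C, 60 min reaction after 20 min preincubation. Eu-anti-pThr37/46 antibody detection. 11-pt half-log curves from 10 μM → IC50.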

CDK6/CCND1 = CDK6/CCND1 (Homo sapiens, UniProt Q00534); assay: CDK6 homogeneous time-resolved fluorescence (HTRF) kinase assay
Sequence of CDK6/CCND1 (Q00534 whole entry): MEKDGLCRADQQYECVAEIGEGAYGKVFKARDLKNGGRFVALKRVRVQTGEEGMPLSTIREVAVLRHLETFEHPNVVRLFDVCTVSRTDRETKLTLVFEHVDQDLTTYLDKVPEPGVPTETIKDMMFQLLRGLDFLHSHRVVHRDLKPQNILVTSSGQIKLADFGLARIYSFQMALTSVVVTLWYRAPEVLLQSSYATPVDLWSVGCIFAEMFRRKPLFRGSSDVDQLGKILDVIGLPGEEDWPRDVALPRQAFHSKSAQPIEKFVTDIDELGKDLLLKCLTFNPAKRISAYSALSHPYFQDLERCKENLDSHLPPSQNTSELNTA
Sequence of CDK6/CCND1 (P24385 whole entry partner): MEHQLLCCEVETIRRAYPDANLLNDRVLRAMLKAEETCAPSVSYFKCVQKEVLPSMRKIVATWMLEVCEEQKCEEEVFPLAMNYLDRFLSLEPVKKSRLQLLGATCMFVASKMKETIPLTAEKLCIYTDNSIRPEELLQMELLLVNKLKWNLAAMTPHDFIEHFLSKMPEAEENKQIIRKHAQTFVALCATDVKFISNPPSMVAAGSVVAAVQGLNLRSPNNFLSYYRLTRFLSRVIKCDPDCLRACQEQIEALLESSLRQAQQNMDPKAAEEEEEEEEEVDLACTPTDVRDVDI
Outline: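 Recombinant CDK6/CCND1 (1 nM final) was preincubated with compound for 20 min at 23 °C in HEPES buffer with MgCl2, EGTA, DTT and Tween 20. Kinase reaction then ran 60 min at 23 °C with 1 mM ATP and 50 nM ULight-4E-BP1 (Thr37/46) peptide, and was stopped with EDTA.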

[1] = CDK2/CCNE, x = IC50 25-250 nM, read-out: CDK2/CCNE IC50 (25-250 nM)
[2] = CDK1/CCNB, x = IC50 >250 nM, read-out: CDK1/CCNB IC50 (>250 nM column)
[3] = CDK4/CCND, x = IC50 >250 nM, read-out: CDK4/CCND IC50 (>250 nM column)
[4] = CDK6/CCND, x = IC50 >250 nM, read-out: CDK6/CCND IC50 (>250 nM column)
[5] = 25-250 nM, CDK2/CCNE, read-out: CDK2/CCNE IC50, 25-250 nM
[6] = >250 nM, CDK1/CCNB, read-out: CDK1/CCNB IC50 >250 nM
[7] = >250 nM, CDK4/CCND, read-out: CDK4/CCND IC50, >250 nM
[8] = >250 nM, CDK6/CCND, 1 mM ATP, read-out: CDK6/CCND IC50, >250 nM
[9] = CDK1/CCNB, >250 nM marked x, read-out: CDK1/CCNB IC50 >250 nM
[10] = CDK4/CCND, >250 nM marked x, read-out: CDK4/CCND IC50 >250 nM
[11] = CDK6/CCND, >250 nM marked x, read-out: CDK6/CCND IC50 >250 nM
[12] = CDK2/CCNE, x = IC50 <25 nM, read-out: CDK2/CCNE IC50 (<25 nM)
[13] = CDK1/CCNB, x = IC50 25-250 nM, read-out: CDK1/CCNB IC50 (25-250 nM)
[14] = <25 nM, CDK2/CCNE, read-out: CDK2/CCNE IC50, <25 nM
[15] = CDK2/CCNE, 25-250 nM marked x, read-out: CDK2/CCNE IC50 25-250 nM

IC50 (CDK2/CCNE1; [1]): 25 to 250 nM
IC50 (CDK1/CCNB1; [2]): > 250 nM
IC50 (CDK4/CCND3; [3]): > 250 nM
IC50 (CDK6/CCND1; [4]): > 250 nM
SMILES: Cc1c(-c2nccc3cnc(Nc4ccc(S(C)(=O)=O)cc4)cc23)ccc2nn(CC(C)O)cc12 (racemic) [Ex 675, 1-(4-methyl-5-(7-((4-(methylsulfonyl)phenyl)amino)-2,6-naphthyridin-1-yl)-2H-indazol-2-yl)propan-2-ol]

IC50 (CDK2/CCNE1; [1]): 25 to 250 nM
IC50 (CDK1/CCNB1; [2]): > 250 nM
IC50 (CDK4/CCND3; [3]): > 250 nM
IC50 (CDK6/CCND1; [4]): > 250 nM
SMILES: CS(=O)(=O)c1ccc(Nc2cc3c(C#Cc4cc(CO)cnc4N)nccc3cn2)cc1 [Ex 533, (6-amino-5-((7-((4-(methylsulfonyl)phenyl)amino)-2,6-naphthyridin-1-yl)ethynyl)pyridin-3-yl)methanol]

IC50 (CDK2/CCNE1; CDK2/CCNE, <25 nM, read-out: CDK2/CCNE IC50 <25 nM): < 25 nM
IC50 (CDK1/CCNB1; CDK1/CCNB, 25-250 nM marked x, read-out: CDK1/CCNB IC50 25-250 nM): 25 to 250 nM
IC50 (CDK4/CCND3; CDK4/CCND, <25 nM, read-out: CDK4/CCND IC50 <25 nM): < 25 nM
IC50 (CDK6/CCND1; CDK6/CCND, <25 nM, read-out: CDK6/CCND IC50 <25 nM): < 25 nM
SMILES: C=CS(=O)(=O)N1CCC(Nc2cc3c(C4=CCCCC4)nccc3cn2)CC1 [Example 20, 5-(cyclohex-1-en-1-yl)-N-(1-(vinylsulfonyl)piperidin-4-yl)-2,6-naphthyridin-3-amine]

IC50 (CDK2/CCNE1; [14]): < 25 nM
IC50 (CDK1/CCNB1; [6]): > 250 nM
IC50 (CDK4/CCND3; 25-250 nM, CDK4/CCND, read-out: CDK4/CCND IC50, 25-250 nM): 25 to 250 nM
IC50 (CDK6/CCND1; 25-250 nM, CDK6/CCND, 1 mM ATP, read-out: CDK6/CCND IC50, 25-250 nM): 25 to 250 nM
SMILES: Cc1c(-c2nccc3cnc(Nc4ccc(S(=O)(=O)NC5CCN(C)C5)cc4)cc23)ccc2c1cnn2CC(C)(C)O (racemic) [Ex 771, 4-((5-(1-(2-hydroxy-2-methylpropyl)-4-methyl-1H-indazol-5-yl)-2,6-naphthyridin-3-yl)amino)-N-(1-methylpyrrolidin-3-yl)benzenesulfonamide]

IC50 (CDK2/CCNE1; [1]): 25 to 250 nM
IC50 (CDK1/CCNB1; [2]): > 250 nM
IC50 (CDK4/CCND3; [3]): > 250 nM
IC50 (CDK6/CCND1; [4]): > 250 nM
SMILES: COc1ccc(C#Cc2nccc3cnc(Nc4ccc(S(C)(=O)=O)cc4)cc23)c(C)c1 [Ex 527, 5-((4-methoxy-2-methylphenyl)ethynyl)-N-(4-(methylsulfonyl)phenyl)-2,6-naphthyridin-3-amine]

IC50 (CDK2/CCNE1; [15]): 25 to 250 nM
IC50 (CDK1/CCNB1; [9]): > 250 nM
IC50 (CDK4/CCND3; CDK4/CCND, 25-250 nM marked x, read-out: CDK4/CCND IC50 25-250 nM): 25 to 250 nM
IC50 (CDK6/CCND1; CDK6/CCND, 25-250 nM marked x, read-out: CDK6/CCND IC50 25-250 nM): 25 to 250 nM
SMILES: CN(C)C1CCN(c2nccc3cnc(NC4CCN(S(C)(=O)=O)CC4)cc23)CC1 [Ex 49, 5-(4-(dimethylamino)piperidin-1-yl)-N-(1-(methylsulfonyl)piperidin-4-yl)-2,6-naphthyridin-3-amine]

IC50 (CDK2/CCNE1; [14]): < 25 nM
IC50 (CDK1/CCNB1; [6]): > 250 nM
IC50 (CDK4/CCND3; [7]): > 250 nM
IC50 (CDK6/CCND1; [8]): > 250 nM
SMILES: Cc1c(-c2nccc3cnc(Nc4ccc(S(=O)(=O)Nc5nccc(N6CCOCC6)n5)cc4)cc23)ccc2c1cnn2CC(C)(C)O [Ex 893, 4-((5-(1-(2-hydroxy-2-methylpropyl)-4-methyl-1H-indazol-5-yl)-2,6-naphthyridin-3-yl)amino)-N-(4-morpholinopyrimidin-2-yl)benzenesulfonamide]

The remaining lines, values behind:

SMILES: COc1ccc(NS(=O)(=O)c2ccc(Nc3cc4c(-c5ccc6c(cnn6CC(O)(C(F)(F)F)C(F)(F)F)c5C)nccc4cn3)cc2)nc1N1CCOCC1 [Ex 697, N-(5-methoxy-6-morpholinopyridin-2-yl)-4-((5-(4-methyl-1-(3,3,3-trifluoro-2-hydroxy-2-(trifluoromethyl)propyl)-1H-indazol-5-yl)-2,6-naphthyridin-3-yl)amino)benzenesulfonamide]
IC50 (CDK2/CCNE1; [5]): 25 to 250 nM
IC50 (CDK1/CCNB1; [6]): > 250 nM
IC50 (CDK4/CCND3; [7]): > 250 nM
IC50 (CDK6/CCND1; [8]): > 250 nM

SMILES: Cc1c(-c2nccc3cnc(Nc4ccc(NS(=O)(=O)c5ccc(N6CCOCC6)nc5)cc4)cc23)ccc2c1cnn2CC(C)(C)O [Ex 780, N-(4-((5-(1-(2-hydroxy-2-methylpropyl)-4-methyl-1H-indazol-5-yl)-2,6-naphthyridin-3-yl)amino)phenyl)-6-morpholinopyridine-3-sulfonamide]
IC50 (CDK2/CCNE1; [5]): 25 to 250 nM
IC50 (CDK1/CCNB1; [6]): > 250 nM
IC50 (CDK4/CCND3; [7]): > 250 nM
IC50 (CDK6/CCND1; [8]): > 250 nM

SMILES: CCC1(CC)C(=O)Nc2cc(C#Cc3nccc4cnc(Nc5ccc(S(=N)(=O)CC(F)(F)F)cc5OC)cc34)ccc21 (single isomer, unassigned) [Ex 281, 3,3-diethyl-6-((7-((2-methoxy-4-(2,2,2-trifluoroethylsulfonimidoyl)phenyl)amino)-2,6-naphthyridin-1-yl)ethynyl)indolin-2-one]
IC50 (CDK2/CCNE1; CDK2/CCNE, >250 nM marked x, read-out: CDK2/CCNE IC50 >250 nM): > 250 nM
IC50 (CDK1/CCNB1; [9]): > 250 nM
IC50 (CDK4/CCND3; [10]): > 250 nM
IC50 (CDK6/CCND1; [11]): > 250 nM

SMILES: CS(=N)(=O)c1ccc(Nc2cc3c(C#Cc4ccc5oc(=O)[nH]c5c4)nccc3cn2)cc1 (racemic) [Ex 491, 5-((7-((4-(S-methylsulfonimidoyl)phenyl)amino)-2,6-naphthyridin-1-yl)ethynyl)benzo[d]oxazol-2(3H)-one]
IC50 (CDK2/CCNE1; [12]): < 25 nM
IC50 (CDK1/CCNB1; [13]): 25 to 250 nM
IC50 (CDK4/CCND3; CDK4/CCND, x = IC50 25-250 nM, read-out: CDK4/CCND IC50 (25-250 nM)): 25 to 250 nM
IC50 (CDK6/CCND1; CDK6/CCND, x = IC50 25-250 nM, read-out: CDK6/CCND IC50 (25-250 nM)): 25 to 250 nM
IC50 (CDK6/CCND1; [4]): > 250 nM

SMILES: Cc1c(-c2nccc3cnc(Nc4ccc(NS(=O)(=O)c5cccs5)cc4)cc23)ccc2c1cnn2CC(C)(C)O [Ex 834, N-(4-((5-(1-(2-hydroxy-2-methylpropyl)-4-methyl-1H-indazol-5-yl)-2,6-naphthyridin-3-yl)amino)phenyl)thiophene-2-sulfonamide]
IC50 (CDK2/CCNE1; [14]): < 25 nM
IC50 (CDK1/CCNB1; [6]): > 250 nM
IC50 (CDK4/CCND3; [7]): > 250 nM
IC50 (CDK6/CCND1; [8]): > 250 nM

SMILES: CCC1(C)C(=O)Nc2cc(C#Cc3nccc4cnc(Nc5ccc(S(C)(=O)=O)cc5)cc34)ccc21 (racemic) [Example 390, 3-ethyl-3-methyl-6-((7-((4-(methylsulfonyl)phenyl)amino)-2,6-naphthyridin-1-yl)ethynyl)indolin-2-one]
IC50 (CDK2/CCNE1; [12]): < 25 nM
IC50 (CDK1/CCNB1; [13]): 25 to 250 nM
IC50 (CDK4/CCND3; [3]): > 250 nM
IC50 (CDK6/CCND1; [4]): > 250 nM

SMILES: CC(C)S(=N)(=O)c1ccc(Nc2cc3c(C#Cc4ccc(=O)[nH]n4)nccc3cn2)cc1 (racemic) [Example 431, 6-((7-((4-(propan-2-ylsulfonimidoyl)phenyl)amino)-2,6-naphthyridin-1-yl)ethynyl)pyridazin-3(2H)-one]
IC50 (CDK2/CCNE1; [12]): < 25 nM
IC50 (CDK1/CCNB1; [2]): > 250 nM
IC50 (CDK4/CCND3; [3]): > 250 nM
IC50 (CDK6/CCND1; [4]): > 250 nM

SMILES: CS(=O)(=O)c1ccc(Nc2ncc3ccc(C#N)c(C#Cc4ccc(C#N)cc4)c3n2)cc1 [Example 955, 8-((4-cyanophenyl)ethynyl)-2-((4-(methylsulfonyl)phenyl)amino) quinazoline-7-carbonitrile]
IC50 (CDK2/CCNE1; 3 nM CDK2/CCNE1, 1 mM ATP, read-out: CDK2/CCNE IC50 >250 nM): > 250 nM
IC50 (CDK1/CCNB1; 0.5 nM CDK1/CCNB1, 1 mM ATP, read-out: CDK1/CCNB IC50 >250 nM): > 250 nM
IC50 (CDK4/CCND3; 1.5 nM CDK4/CCND3, 1 mM ATP, read-out: CDK4/CCND IC50 >250 nM): > 250 nM
IC50 (CDK6/CCND1; 1 nM CDK6/CCND1, 1 mM ATP, read-out: CDK6/CCND IC50 >250 nM): > 250 nM

SMILES: CCC1(CC)C(=O)Nc2cc(C#Cc3nccc4cnc(Nc5ccc(S(=O)(=O)CC(F)(F)F)cc5C)cc34)ccc21 [Ex 286, 3,3-diethyl-6-((7-((2-methyl-4-((2,2,2-trifluoroethyl)sulfonyl)phenyl)amino)-2,6-naphthyridin-1-yl)ethynyl)indolin-2-one]
IC50 (CDK2/CCNE1; [15]): 25 to 250 nM
IC50 (CDK1/CCNB1; [9]): > 250 nM
IC50 (CDK4/CCND3; [10]): > 250 nM
IC50 (CDK6/CCND1; [11]): > 250 nM
